From the supplement of paper PMC10307832

Assays:
Test in all cases: relative viability (nuclei count vs DMSO), 5 days (fraction); higher = more cells survive
Ponatinib + OSI-027 = compound: Cc1ccc(C(=O)Nc2ccc(CN3CCN(C)CC3)c(C(F)(F)F)c2)cc1C#Cc1cnc2cccnn12 [Ponatinib] + COc1cccc2cc(-c3nc([C@H]4CC[C@H](C(=O)O)CC4)n4ncnc(N)c34)[nH]c12 [OSI-027] (partner 0.5 µM)
Summary of the method: (§1)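 Medians of duplicate plates are given as relative viability. That measure is the nuclei count in treated wells divided by the count in vehicle wells. Counts were taken on 4× images of lung cancer cell lines in 1536-well plates, 5 days after pin-tool dosing the day after seeding with one drug alone or a fixed anchor-drug dose plus five library-drug doses (not always all listed) in √10 steps.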

Ponatinib + Decitabine = compound: Cc1ccc(C(=O)Nc2ccc(CN3CCN(C)CC3)c(C(F)(F)F)c2)cc1C#Cc1cnc2cccnn12 [Ponatinib] + Nc1ncn([C@H]2C[C@H](O)[C@@H](CO)O2)c(=O)n1 [Decitabine] (partner 2 µM)
Summary of the method: as §1

Pazopanib + OSI-027 = compound: Cc1ccc(Nc2nccc(N(C)c3ccc4c(C)n(C)nc4c3)n2)cc1S(N)(=O)=O [Pazopanib] + COc1cccc2cc(-c3nc([C@H]4CC[C@H](C(=O)O)CC4)n4ncnc(N)c34)[nH]c12 [OSI-027] (partner 0.5 µM)
Summary of the method: as §1

Ponatinib + Crizotinib = compound: Cc1ccc(C(=O)Nc2ccc(CN3CCN(C)CC3)c(C(F)(F)F)c2)cc1C#Cc1cnc2cccnn12 [Ponatinib] + C[C@@H](Oc1cc(-c2cnn(C3CCNCC3)c2)cnc1N)c1c(Cl)ccc(F)c1Cl [Crizotinib] (partner 1 µM)
Summary of the method: as §1

Cell Line | relative viability (Ponatinib + OSI-027; first compound 0.002 µM) | relative viability (Ponatinib + OSI-027; first compound 0.006325 µM) | relative viability (Ponatinib + OSI-027; first compound 0.06325 µM) | relative viability (Ponatinib + OSI-027; first compound 0.2 µM) | relative viability (Ponatinib + Decitabine; first compound 0.002 µM) | relative viability (Ponatinib + Decitabine; first compound 0.006325 µM) | relative viability (Ponatinib + Decitabine; first compound 0.06325 µM) | relative viability (Ponatinib + Decitabine; first compound 0.2 µM) | relative viability (Pazopanib + OSI-027; first compound 0.01 µM) | relative viability (Pazopanib + OSI-027; first compound 0.03162 µM) | relative viability (Pazopanib + OSI-027; first compound 0.1 µM) | relative viability (Pazopanib + OSI-027; first compound 0.3162 µM) | relative viability (Pazopanib + OSI-027; first compound 1 µM) | relative viability (Ponatinib + Crizotinib; first compound 0.002 µM) | relative viability (Ponatinib + Crizotinib; first compound 0.006325 µM) | relative viability (Ponatinib + Crizotinib; first compound 0.06325 µM) | relative viability (Ponatinib + Crizotinib; first compound 0.2 µM)
NCI-H441 | 0.47 | 0.606 | 0.482 | 0.388 | 0.228 | 0.246 | 0.271 | 0.267 | 0.6 | 0.597 | 0.649 | 0.619 | 0.454 | 0.576 | 0.632 | 0.835 | 0.607
NCI-H322M | 0.595 | 0.425 | 0.508 | 0.425 | 0.681 | 0.688 | 0.736 | 0.629 | 0.531 | 0.646 | 0.533 | 0.636 | 0.607 | 0.913 | 0.961 | 0.816 | 0.66
NCI-H2347 | 0.373 | 0.421 | 0.371 | 0.239 | 0.663 | 0.571 | 0.614 | 0.605 | 0.425 | 0.465 | 0.402 | 0.405 | 0.344 | 0.694 | 0.885 | 0.668 | 0.688
COR-L23 | 0.707 | 0.73 | 0.766 | 0.604 | 0.391 | 0.427 | 0.504 | 0.424 | 0.91 | 0.838 | 0.872 | 0.832 | 0.913 | 0.525 | 0.588 | 0.619 | 0.568
NCI-H2087 | 0.667 | 0.525 | 0.593 | 0.563 | 0.186 | 0.294 | 0.338 | 0.264 | 0.502 | 0.567 | 0.489 | 0.553 | 0.487 | 0.669 | 0.654 | 0.839 | 0.853
LC-2-ad | 0.673 | 0.732 | 0.775 | 0.678 | 0.738 | 0.684 | 0.696 | 0.582 | 0.865 | 1 | 0.84 | 0.808 | 0.99 | 0.482 | 0.417 | 0.418 | 0.421
NCI-H1915 | 0.546 | 0.651 | 0.639 | 0.56 | 0.244 | 0.274 | 0.246 | 0.257 | 0.61 | 0.659 | 0.626 | 0.588 | 0.64 | 0.801 | 0.844 | 0.839 | 0.794
NCI-H1944 | 0.387 | 0.43 | 0.44 | 0.394 | 0.422 | 0.433 | 0.482 | 0.43 | – | 0.422 | 0.46 | 0.441 | 0.48 | 1.07 | 1.24 | 1.23 | 1.01
NCI-H2023 | 0.347 | 0.379 | 0.399 | 0.267 | 0.24 | 0.196 | 0.244 | 0.21 | 0.417 | 0.425 | 0.35 | 0.42 | 0.536 | 0.711 | 0.769 | 0.788 | 0.664
COR-L 105 | 0.638 | 0.807 | 1.03 | 0.744 | 0.671 | 0.674 | 0.821 | 0.61 | 0.636 | 0.665 | 0.635 | 0.75 | 0.857 | 0.706 | 1.05 | 0.791 | 0.703
SK-LU-1 | 0.334 | 0.345 | 0.344 | 0.248 | 0.562 | 0.569 | 0.639 | 0.555 | 0.452 | 0.345 | 0.385 | 0.395 | 0.352 | 0.804 | 0.948 | 0.963 | 0.777
LXF-289 | 0.735 | 0.808 | 0.916 | 0.714 | 0.388 | 0.359 | 0.36 | 0.379 | 0.815 | 0.774 | 0.805 | 0.77 | 0.843 | 0.769 | 0.825 | 0.821 | 0.792
PC-3 [JPC-3] | 0.745 | 0.76 | 0.754 | 0.69 | – | 0.871 | 0.849 | 0.838 | 0.929 | 0.806 | 0.747 | 0.756 | 0.661 | 0.925 | 1.04 | 1.11 | 0.989
NCI-H2342 | 0.557 | 0.602 | 0.53 | 0.637 | 0.74 | 0.703 | 0.837 | 0.77 | 0.535 | 0.665 | 0.564 | 0.624 | 0.524 | – | – | – | –
NCI-H1299 | – | – | – | – | – | – | – | – | – | – | – | – | – | 0.904 | 0.936 | 0.974 | 0.923
SW 900 | 0.465 | 0.575 | 0.623 | 0.577 | 0.447 | 0.43 | 0.518 | 0.481 | 0.478 | 0.535 | 0.515 | 0.588 | 0.565 | – | – | – | –
NCI-H1395 | 0.519 | 0.57 | 0.558 | 0.505 | 0.816 | 0.714 | 0.682 | 0.615 | 0.606 | 0.741 | 0.605 | 0.616 | 0.706 | – | – | – | –
NCI-H1648 | 0.249 | 0.299 | 0.261 | 0.282 | 0.464 | 0.615 | 0.429 | 0.358 | 0.24 | 0.219 | 0.242 | 0.271 | 0.235 | – | – | – | –
NCI-H522 | 0.641 | 0.683 | 0.65 | 0.578 | 0.615 | 0.64 | 0.615 | 0.609 | 0.705 | 0.662 | 0.705 | 0.636 | 0.775 | – | – | – | –
NCI-H1793 | 0.281 | 0.256 | 0.273 | 0.175 | 0.451 | 0.526 | 0.561 | 0.499 | – | 0.254 | 0.274 | 0.354 | 0.273 | – | – | – | –
A549 | – | – | – | – | 0.238 | 0.294 | 0.324 | 0.295 | – | – | – | – | – | 0.625 | 0.743 | 0.682 | 0.702
NCI-H1563 | 0.764 | 0.711 | 0.687 | 0.692 | – | – | – | – | 0.716 | 0.802 | 0.788 | 0.802 | 0.734 | 0.843 | 0.792 | 0.921 | 0.843
